# According to patent publication US20120220562A1, “Anti-Viral Compounds” (ABBOTT LABAORATORIES, priority 2011, published 2012):
# Test system: HCV 1b-Con1 replicon
# Test: HCV 1b-Con1 replicon assay in the presence of 5% FBS
# Format: cell-based
# Settings: Hepatitis C virus
row,Compound,EC50
1,"COC(=O)N[C@H](C(=O)N1CCC[C@H]1c1nc2cc([C@H]3CC[C@H](c4cc5nc([C@@H]6CCCN6C(=O)[C@@H](NC(=O)OC)C6CCOCC6)[nH]c5cc4F)N3c3cc(F)c(N4CCN(c5c(F)cccc5F)CC4)c(F)c3)c(F)cc2[nH]1)C1CCOCC1 [Example 3.51, dimethyl ([(2R,5R)-1-{4-[4-(2,6-difluorophenyl)piperazin-1-yl]-3,5-difluorophenyl}pyrrolidine-2,5-diyl]bis{(6-fluoro-1H-benzimidazole-5,2-diyl)(2S)pyrrolidine-2,1-diyl[(1S)-2-oxo-1-(tetrahydro-2H-pyran-4-yl)ethane-2,1-diyl]})biscarbamate]",< 0.1 nM
2,"COC(=O)N[C@H](C(=O)N1CCC[C@H]1c1nc2cc(F)c([C@H]3CC[C@H](c4cc5[nH]c([C@@H]6CCCN6C(=O)[C@@H](NC(=O)OC)C(C)C)nc5cc4F)N3c3cc(F)c(N4CCC(Cc5ccccc5)CC4)c(F)c3)cc2[nH]1)C(C)C [Example 4.44, methyl {(2S)-1-[(2S)-2-{6-[(2R,5R)-1-[4-(4-benzylpiperidin-1-yl)-3,5-difluorophenyl]-5-{5-fluoro-2-[(2S)-1-{(2S)-2-[(methoxycarbonyl)amino]-3-methylbutanoyl}pyrrolidin-2-yl]-1H-benzimidazol-6-yl}pyrrolidin-2-yl]-5-fluoro-1H-benzimidazol-2-yl}pyrrolidin-1-yl]-3-methyl-1-oxobutan-2-yl}carbamate]",< 0.1 nM
3,"COC(=O)N[C@H](C(=O)N1CCC[C@H]1c1nc2cc([C@H]3CC[C@H](c4cc5nc([C@@H]6CCCN6C(=O)[C@@H](NC(=O)OC)C6CCOCC6)[nH]c5cc4F)N3c3cc(F)c(N4CCC(C(C)(C)C)CC4)c(F)c3)c(F)cc2[nH]1)C1CCOCC1 [Example 6.14, dimethyl ({(2R,5R)-1-[4-(4-tert-butylpiperidin-1-yl)-3,5-difluorophenyl]pyrrolidine-2,5-diyl}bis{(6-fluoro-1H-benzimidazole-5,2-diyl)(2S)pyrrolidine-2,1-diyl [(1S)-2-oxo-1-(tetrahydro-2H-pyran-4-yl)ethane-2,1-diyl]}) biscarbamate]",< 0.1 nM
4,"COC(=O)N[C@H](C(=O)N1CCC[C@H]1c1nc2cc([C@H]3CC[C@H](c4ccc5[nH]c([C@@H]6CCCN6C(=O)[C@@H](NC(=O)OC)C6CCOCC6)nc5c4)N3c3cc(F)c(N4CCC(C)(C)CC4)c(F)c3)ccc2[nH]1)C1CCOCC1 [Example 4.23, dimethyl ({(2R,5R)-1-[4-(4,4-dimethylpiperidin-1-yl)-3,5-difluorophenyl]pyrrolidine-2,5-diyl}bis{1H-benzimidazole-5,2-diyl(2S)pyrrolidine-2,1-diyl[(1S)-2-oxo-1-(tetrahydro-2H-pyran-4-yl)ethane-2,1-diyl]})biscarbamate]",< 0.1 nM
5,"COC(=O)N[C@H](C(=O)N1CCC[C@H]1c1nc2cc([C@H]3CC[C@H](c4ccc5[nH]c([C@@H]6CCCN6C(=O)[C@@H](NC(=O)OC)C(C)C)nc5c4)N3c3cc(F)c(N4CCC(c5ccccc5)(c5ccccc5)CC4)c(F)c3)ccc2[nH]1)C(C)C [Example 5.2, methyl {(2S)-1-[(2S)-2-{5-[(2R,5R)-1-[4-(4,4-diphenylpiperidin-1-yl)-3,5-difluorophenyl]-5-{2-[(2S)-1-{(2S)-2-[(methoxycarbonyl)amino]-3-methylbutanoyl}pyrrolidin-2-yl]-1H-benzimidazol-5-yl}pyrrolidin-2-yl]-1H-benzimidazol-2-yl}pyrrolidin-1-yl]-3-methyl-1-oxobutan-2-yl}carbamate]",< 0.1 nM
6,"COC(=O)N[C@H](C(=O)N1CCC[C@H]1c1nc2ccc([C@H]3CC[C@H](c4ccc5nc([C@@H]6CCCN6C(=O)[C@@H](NC(=O)OC)C(C)C)[nH]c5c4)N3c3ccc(S(C)(=O)=O)c(F)c3)cc2[nH]1)C(C)C [Example 2.7, methyl {(2S)-1-[(2S)-2-{6-[(2R,5R)-1-[3-fluoro-4-(methylsulfonyl)phenyl]-5-{2-[(2S)-1-{(2S)-2-[(methoxycarbonyl)amino]-3-methylbutanoyl}pyrrolidin-2-yl]-1H-benzimidazol-6-yl}pyrrolidin-2-yl]-1H-benzimidazol-2-yl}pyrrolidin-1-yl]-3-methyl-1-oxobutan-2-yl}carbamate]",1 to 10 nM
7,"COC(=O)N[C@H](C(=O)N1CCC[C@H]1c1ncc(-c2cccc(C3(c4cccc(-c5cnc([C@@H]6CCCN6C(=O)[C@@H](NC(=O)OC)C(C)C)[nH]5)c4)CN(c4ccc(C(C)(C)C)cc4)C3)c2)[nH]1)C(C)C [Example 12.1, methyl {(2S)-1-[(2S)-2-(5-{3-[1-(4-tert-butylphenyl)-3-(3-{2-[(2S)-1-{(2S)-2-[(methoxycarbonyl)amino]-3-methylbutanoyl}pyrrolidin-2-yl]-1H-imidazol-5-yl}phenyl)azetidin-3-yl]phenyl}-1H-imidazol-2-yl)pyrrolidin-1-yl]-3-methyl-1-oxobutan-2-yl}carbamate]",1 to 10 nM
8,"COC(=O)N[C@H](C(=O)N1CCC[C@H]1c1nc2ccc([C@H]3CC[C@H](c4ccc5nc([C@@H]6CCCN6C(=O)[C@@H](NC(=O)OC)C(C)C)[nH]c5c4)N3c3cc(F)c(N4CCC(c5ccc([Si](C)(C)C)cc5)CC4)c(F)c3)cc2[nH]1)C(C)C [Example 2.14, methyl {(2S)-1-[(2S)-2-{5-[(2R,5R)-1-(3,5-difluoro-4-{4-[4-(trimethylsilyl)phenyl]piperidin-1-yl}phenyl)-5-{2-[(2S)-1-{(2S)-2-[(methoxycarbonyl)amino]-3-methylbutanoyl}pyrrolidin-2-yl]-1H-benzimidazol-5-yl}pyrrolidin-2-yl]-1H-benzimidazol-2-yl}pyrrolidin-1-yl]-3-methyl-1-oxobutan-2-yl}carbamate]",< 0.1 nM
9,"COC(=O)N[C@H](C(=O)N1C[C@@H](F)C[C@H]1c1nc2cc([C@H]3CC[C@H](c4ccc5[nH]c([C@@H]6C[C@H](F)CN6C(=O)[C@@H](NC(=O)OC)C(C)C)nc5c4)N3c3cc(F)c(N4CCCCC4)c(F)c3)ccc2[nH]1)C(C)C [Example 3.8, methyl {(2S)-1-[(2S,4S)-2-{5-[(2R,5R)-1-[3,5-difluoro-4-(piperidin-1-yl)phenyl]-5-{2-[(2S,4S)-4-fluoro-1-{(2S)-2-[(methoxycarbonyl)amino]-3-methylbutanoyl}pyrrolidin-2-yl]-1H-benzimidazol-5-yl}pyrrolidin-2-yl]-1H-benzimidazol-2-yl}-4-fluoropyrrolidin-1-yl]-3-methyl-1-oxobutan-2-yl}carbamate]",< 0.1 nM
10,"COC(=O)N[C@H](C(=O)N1CCC[C@H]1c1nc2cc([C@H]3CC[C@H](c4cc5nc([C@@H]6CCCN6C(=O)[C@@H](NC(=O)OC)[C@@H](C)OC(C)(C)C)[nH]c5cc4F)N3c3cc(F)c(N4CCC(C(C)(C)C)CC4)c(F)c3)c(F)cc2[nH]1)[C@@H](C)OC(C)(C)C [Example 4.29, methyl {(2S,3R)-3-tert-butoxy-1-[(2S)-2-(5-{(2R,5R)-5-{2-[(2S)-1-{(2S,3R)-3-tert-butoxy-2-[(methoxycarbonyl)amino]butanoyl}pyrrolidin-2-yl]-6-fluoro-1H-benzimidazol-5-yl}-1-[4-(4-tert-butylpiperidin-1-yl)-3,5-difluorophenyl]pyrrolidin-2-yl}-6-fluoro-1H-benzimidazol-2-yl)pyrrolidin-1-yl]-1-oxobutan-2-yl}carbamate]",< 0.1 nM
11,"COC(=O)N[C@H](C(=O)N1CCC[C@H]1c1nc2cc([C@H]3CC[C@H](c4cc5nc([C@@H]6CCCN6C(=O)[C@@H](NC(=O)OC)C(C)C)[nH]c5cc4F)N3c3cc(F)c(N4CCC(F)(c5ccccc5)CC4)c(F)c3)c(F)cc2[nH]1)C(C)C [Example 4.62, methyl {(2S)-1-[(2S)-2-{5-[(2R,5R)-1-[3,5-difluoro-4-(4-fluoro-4-phenylpiperidin-1-yl)phenyl]-5-{6-fluoro-2-[(2S)-1-{(2S)-2-[(methoxycarbonyl)amino]-3-methylbutanoyl}pyrrolidin-2-yl]-1H-benzimidazol-5-yl}pyrrolidin-2-yl]-6-fluoro-1H-benzimidazol-2-yl}pyrrolidin-1-yl]-3-methyl-1-oxobutan-2-yl}carbamate]",< 0.1 nM
12,"COC(=O)N[C@H](C(=O)N1CCC[C@H]1c1nc2cc([C@H]3CC[C@H](c4ccc5[nH]c([C@@H]6CCCN6C(=O)[C@@H](NC(=O)OC)C(C)(C)C)nc5c4)N3c3cc(F)c(N4CCC(c5ccccc5)CC4)c(F)c3)ccc2[nH]1)C(C)(C)C [Example 5.4, methyl {(2S)-1-[(2S)-2-{5-[(2R,5R)-1-[3,5-difluoro-4-(4-phenylpiperidin-1-yl)phenyl]-5-{2-[(2S)-1-{(2S)-2-[(methoxycarbonyl)amino]-3,3-dimethylbutanoyl}pyrrolidin-2-yl]-1H-benzimidazol-5-yl}pyrrolidin-2-yl]-1H-benzimidazol-2-yl}pyrrolidin-1-yl]-3,3-dimethyl-1-oxobutan-2-yl}carbamate]",< 0.1 nM
13,"COC(=O)N[C@H](C(=O)N1CCC[C@H]1c1nc2cc([C@H]3CC[C@H](c4ccc5[nH]c([C@@H]6CCCN6C(=O)[C@@H](NC(=O)OC)C(C)C)nc5c4)N3c3ccc(OC(F)(F)F)c(Cl)c3)ccc2[nH]1)C(C)C [Example 3.2, methyl {(2S)-1-[(2S)-2-{5-[(2R,5R)-1-[3-chloro-4-(trifluoromethoxy)phenyl]-5-{2-[(2S)-1-{(2S)-2-[(methoxycarbonyl)amino]-3-methylbutanoyl}pyrrolidin-2-yl]-1H-benzimidazol-5-yl}pyrrolidin-2-yl]-1H-benzimidazol-2-yl}pyrrolidin-1-yl]-3-methyl-1-oxobutan-2-yl}carbamate]",< 0.1 nM
14,"COC(=O)N[C@H](C(=O)N1CCC[C@H]1c1nc2cc([C@H]3CC[C@H](c4ccc5[nH]c([C@@H]6CCCN6C(=O)[C@@H](NC(=O)OC)C(C)C)nc5c4)N3c3cc(F)c(N4CCOC(c5ccccc5)C4)c(F)c3)ccc2[nH]1)C(C)C (stereo partly drawn) [Example 4.49, methyl {(2S)-1-[(2S)-2-{5-[(2R,5R)-1-[3,5-difluoro-4-(2-phenylmorpholin-4-yl)phenyl]-5-{2-[(2S)-1-{(2S)-2-[(methoxycarbonyl)amino]-3-methylbutanoyl}pyrrolidin-2-yl]-1H-benzimidazol-5-yl}pyrrolidin-2-yl]-1H-benzimidazol-2-yl}pyrrolidin-1-yl]-3-methyl-1-oxobutan-2-yl}carbamate]",< 0.1 nM
